# Results published in ChEMBL document CHEMBL1156582, “Synthesis and structure-activity relationships of selective norepinephrine reuptake inhibitors (sNRI) with a heterocyclic ring constraint” (Bioorg Med Chem Lett, 2008).
# Assays:
# Assay type in all cases: cell-based, HEK293
# [1] = target: Sodium-dependent serotonin transporter (Homo sapiens, UniProt P31645);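 also: test system: HEK cells expressing the human transporter, read-out is block of serotonin uptake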
# [2] = target: Sodium-dependent noradrenaline transporter (Homo sapiens, UniProt P23975); assay: Inhibition of norepinephrine uptake at human NET expressed in HEK cells
# Sequence of Sodium-dependent noradrenaline transporter (P23975 whole entry): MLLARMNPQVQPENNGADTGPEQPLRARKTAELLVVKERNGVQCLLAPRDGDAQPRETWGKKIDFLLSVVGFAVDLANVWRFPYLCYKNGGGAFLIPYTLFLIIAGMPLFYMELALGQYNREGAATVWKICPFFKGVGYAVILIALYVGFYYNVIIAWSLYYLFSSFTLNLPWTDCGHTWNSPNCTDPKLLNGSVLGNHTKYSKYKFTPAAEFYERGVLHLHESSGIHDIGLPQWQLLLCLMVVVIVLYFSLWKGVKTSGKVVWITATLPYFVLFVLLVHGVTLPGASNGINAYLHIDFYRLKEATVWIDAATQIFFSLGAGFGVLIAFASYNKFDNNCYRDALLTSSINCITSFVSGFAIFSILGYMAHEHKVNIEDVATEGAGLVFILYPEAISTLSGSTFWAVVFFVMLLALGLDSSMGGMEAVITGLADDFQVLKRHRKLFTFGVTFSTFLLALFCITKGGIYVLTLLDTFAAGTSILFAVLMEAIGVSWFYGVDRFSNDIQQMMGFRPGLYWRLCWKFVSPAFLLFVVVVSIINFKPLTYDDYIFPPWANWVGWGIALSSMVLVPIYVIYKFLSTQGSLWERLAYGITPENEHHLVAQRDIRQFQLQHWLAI
# [3] = target: Sodium-dependent dopamine transporter (Homo sapiens, UniProt Q01959); assay: Inhibition of dopamine uptake at human DAT expressed in HEK cells
# Sequence of Sodium-dependent dopamine transporter (Q01959 whole entry): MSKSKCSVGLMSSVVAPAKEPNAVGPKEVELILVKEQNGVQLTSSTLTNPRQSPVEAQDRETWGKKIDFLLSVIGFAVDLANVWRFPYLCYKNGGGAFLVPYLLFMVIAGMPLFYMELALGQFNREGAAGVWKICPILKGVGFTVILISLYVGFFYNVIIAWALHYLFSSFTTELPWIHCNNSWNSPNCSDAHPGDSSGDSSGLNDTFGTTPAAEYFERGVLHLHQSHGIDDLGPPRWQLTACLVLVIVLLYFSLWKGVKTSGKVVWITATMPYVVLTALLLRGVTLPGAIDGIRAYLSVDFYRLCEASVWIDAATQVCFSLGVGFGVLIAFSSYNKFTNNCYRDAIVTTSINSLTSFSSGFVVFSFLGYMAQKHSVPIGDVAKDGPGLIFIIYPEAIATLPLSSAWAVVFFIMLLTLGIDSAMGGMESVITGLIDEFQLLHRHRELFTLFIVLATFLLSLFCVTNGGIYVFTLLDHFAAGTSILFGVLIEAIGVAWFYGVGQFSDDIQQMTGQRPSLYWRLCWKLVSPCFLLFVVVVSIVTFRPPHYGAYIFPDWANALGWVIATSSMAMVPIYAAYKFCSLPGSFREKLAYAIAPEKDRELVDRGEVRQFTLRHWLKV
# Sequence of Sodium-dependent serotonin transporter (P31645 whole entry): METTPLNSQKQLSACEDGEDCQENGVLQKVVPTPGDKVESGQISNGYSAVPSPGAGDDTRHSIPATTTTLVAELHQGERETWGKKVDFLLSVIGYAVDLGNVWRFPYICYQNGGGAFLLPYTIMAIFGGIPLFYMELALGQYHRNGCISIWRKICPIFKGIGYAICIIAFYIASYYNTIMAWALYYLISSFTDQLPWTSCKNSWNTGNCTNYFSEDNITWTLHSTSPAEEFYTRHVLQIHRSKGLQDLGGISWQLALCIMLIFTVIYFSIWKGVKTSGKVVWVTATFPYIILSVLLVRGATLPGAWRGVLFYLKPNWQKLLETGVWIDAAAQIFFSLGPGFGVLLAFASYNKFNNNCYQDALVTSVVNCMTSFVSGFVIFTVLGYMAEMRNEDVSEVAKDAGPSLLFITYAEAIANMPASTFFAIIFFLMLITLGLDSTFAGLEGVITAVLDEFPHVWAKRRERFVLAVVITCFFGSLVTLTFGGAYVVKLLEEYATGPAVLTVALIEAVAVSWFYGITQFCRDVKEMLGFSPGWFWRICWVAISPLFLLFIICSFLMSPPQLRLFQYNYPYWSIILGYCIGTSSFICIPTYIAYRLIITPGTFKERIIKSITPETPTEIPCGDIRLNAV
IC50 [1] [nM],IC50 [2] [nM],IC50 [3] [nM],Compound
1100,700,> 10000,Cc1ccccc1O[C@H]1c2ccccc2OC[C@H]1CN(C)C
1600,10,5300,CNC[C@@H]1Cc2ccccc2[C@@H]1Oc1ccccc1C
> 10000,240,> 10000,CCOc1ccccc1O[C@H]1c2ccccc2CO[C@@H]1CNC
640,45,4000,CNC[C@H]1OCc2ccccc2[C@@H]1Oc1ccccc1SC
6000,14,> 10000,CNC[C@@H]1OCc2ccccc2[C@@H]1Oc1ccccc1SC
230,4500,> 10000,CN(C)C[C@@H]1Cc2ccccc2[C@@H]1Oc1ccc(C(F)(F)F)cc1
1500,35,> 10000,CNC[C@H]1Cc2ccccc2[C@@H]1Oc1ccccc1C
190,880,> 10000,CNC[C@@H]1Cc2ccccc2[C@@H]1Oc1ccc(C(F)(F)F)cc1
100,9,1400,CNC[C@@H]1OCc2ccccc2[C@@H]1Oc1cccc(Cl)c1C
150,13,> 10000,CNC[C@@H]1OCc2ccccc2[C@@H]1Oc1ccc(F)cc1C
4000,11,> 10000,CNC[C@@H]1OCc2ccccc2[C@@H]1Oc1cc(F)ccc1C
3600,145,> 10000,CNC[C@@H]1CSc2ccccc2[C@@H]1Oc1ccccc1Cl
2700,140,> 10000,CNC[C@@H]1SCc2ccccc2[C@@H]1Oc1ccccc1Cl
4500,15,> 10000,CCc1ccccc1O[C@H]1c2ccccc2CO[C@H]1CNC
10000,8000,> 10000,CNC[C@H]1CS(=O)(=O)c2ccccc2[C@@H]1Oc1ccccc1C
6500,5000,> 10000,Cc1ccccc1O[C@H]1c2ccccc2C[C@H]1CN(C)C
3000,36,> 10000,CCc1ccccc1O[C@H]1c2ccccc2CO[C@@H]1CNC
3100,430,7500,CNC[C@H]1CSc2ccccc2[C@@H]1Oc1ccccc1C
140,30,5700,CNC[C@@H]1Cc2ccccc2[C@@H]1Oc1cccc2ccccc12
> 10000,480,> 10000,CNC[C@H]1OCc2ccccc2[C@@H]1Oc1ccccc1OC
90,400,4000,CNC[C@H]1Cc2ccccc2[C@@H]1Oc1cccc2ccccc12
3100,75,> 10000,CNC[C@@H]1OCc2ccccc2[C@@H]1Oc1ccccc1F
1400,8,> 10000,CCc1cccc(F)c1O[C@H]1c2ccccc2CO[C@H]1CNC
